Results published in PubChem BioAssay (NCI).
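A five-concentration, 48-hour dose response in 96-well plates underlies each endpoint, interpolated linearly between surrounding concentrations. The concentration for full growth arrest is given as TGI.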

Columns and labels:
Experiment in all cases: growth of human tumour cells (NCI), 48 h
[1] = system: UACC-257 melanoma
[2] = system: K-562 leukemia
[3] = system: EKVX NSCLC
[4] = system: SNB-75 CNS
[5] = system: IGROV1 ovarian
[6] = system: MOLT-4 leukemia
[7] = system: MDA-MB-435
[8] = system: M14 melanoma
[9] = system: SK-MEL-28 melanoma
[10] = system: SN12C renal
[11] = system: HOP-92 NSCLC
[12] = system: NCI/ADR-RES ovarian
[13] = system: NCI-H226 lung
[14] = system: OVCAR-5 ovarian
[15] = system: SK-MEL-5 melanoma
[16] = system: SF-268 CNS
[17] = system: NCI-H460 lung
[18] = system: HL-60(TB) leukemia
[19] = system: SF-295 CNS
[20] = system: LOX IMVI melanoma
[21] = system: U251 CNS
[22] = system: SNB-19 CNS
[23] = system: UACC-62 melanoma
[24] = system: DU-145 prostate
[25] = system: MDA-MB-231 breast
[26] = system: PC-3 prostate
[27] = system: SK-OV-3 ovarian
[28] = system: SR leukemia
[29] = system: HCT-116 colon
[30] = system: HCC-2998 colon
[31] = system: SW-620 colon
[32] = system: OVCAR-3 ovarian
[33] = system: OVCAR-4 ovarian
[34] = system: TK-10 renal
[35] = system: HT29 colon
[36] = system: HOP-62 NSCLC
[37] = system: A498 renal
[38] = system: 786-0 renal
[39] = system: ACHN renal
[40] = system: CCRF-CEM leukemia
[41] = system: UO-31 renal
[42] = system: HCT-15 colon
[43] = system: NCI-H23 lung
[44] = system: OVCAR-8 ovarian
[45] = system: NCI-H522 lung
[46] = system: T-47D breast
[47] = system: A549 NSCLC
[48] = system: SK-MEL-2 melanoma
[49] = system: COLO 205 colon
[50] = system: MALME-3M melanoma
[51] = system: RPMI-8226 leukemia
[52] = system: BT-549 breast
[53] = system: MCF7 breast
[54] = system: CAKI-1 renal
[55] = system: HS 578T breast
[56] = system: SF-539 CNS
[57] = system: KM12 colon

Measured: TGI

NC(=O)CN1CC(C2=C(O)CN(CC(N)=O)C2=O)=CC1=O
> 100 µM: [1] | [2] | [3] | [4] | [5] | [6] | [7] | [8] | [9] | [10] | [11] | [12] | [13] | [14] | [15] | [16] | [17] | [18] | [19] | [20] | [21] | [22] | [23] | [24] | [25] | [26] | [27] | [28] | [29] | [30] | [31] | [32] | [33] | [34] | [35] | [36] | [37] | [38] | [39] | [40] | [41] | [42] | [43] | [44] | [45] | [46] | [47] | [48] | [49] | [50] | [51] | [52] | [53] | [54] | [55] | [56] | [57]
